Test results: article PMC8865125, “Isocoumarins: a new class of selective carbonic anhydrase IX and XII inhibitors” (Journal of Enzyme Inhibition and Medicinal Chemistry, 2022)
Read-outs that look alike come from different tables or passages of the source.

Assays:
Assay in all cases: stopped-flow CO2 hydrase assay
Assay type in all cases: biochemical
[1] = biological target: T1, hCA II (Homo sapiens, UniProt P00918); details: read-out: KI (μM)^a^,b / hCA I
T1 construct: gene CA2; recombinant

[2] = biological target: T2, hCA I (Homo sapiens, UniProt P00915); details: read-out: KI (μM)^a^,b / hCA I
T2 construct: gene CA1; recombinant
From the text: stopped-flow CO2 hydrase assay on hCA I

[3] = biological target: T3, hCA IX (Homo sapiens, UniProt Q16790); details: read-out: KI (μM)^a^,b / hCA IX
T3 construct: gene CA9; recombinant
From the text: stopped-flow CO2 hydrase assay on hCA IX

[4] = biological target: T4, hCA XII (Homo sapiens, UniProt O43570); details: read-out: KI (μM)^a^,b / hCA XII
T4 construct: gene CA12; recombinant
From the text: stopped-flow CO2 hydrase assay on hCA XII

[5] = biological target: T3, hCA IX; details: read-out: KI (μM)^a^,b / hCA I
[6] = biological target: T4, hCA XII; details: read-out: KI (μM)^a^,b / hCA I

T2 sequence (P00915 2-261): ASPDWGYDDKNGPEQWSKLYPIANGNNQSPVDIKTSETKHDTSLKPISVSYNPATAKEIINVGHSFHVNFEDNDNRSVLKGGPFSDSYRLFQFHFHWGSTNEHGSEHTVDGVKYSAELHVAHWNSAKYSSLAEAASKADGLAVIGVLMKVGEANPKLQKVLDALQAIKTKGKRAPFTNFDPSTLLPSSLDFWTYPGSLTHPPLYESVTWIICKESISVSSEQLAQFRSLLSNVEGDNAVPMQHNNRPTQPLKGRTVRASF
T4 sequence (O43570 25-354 limits assumed): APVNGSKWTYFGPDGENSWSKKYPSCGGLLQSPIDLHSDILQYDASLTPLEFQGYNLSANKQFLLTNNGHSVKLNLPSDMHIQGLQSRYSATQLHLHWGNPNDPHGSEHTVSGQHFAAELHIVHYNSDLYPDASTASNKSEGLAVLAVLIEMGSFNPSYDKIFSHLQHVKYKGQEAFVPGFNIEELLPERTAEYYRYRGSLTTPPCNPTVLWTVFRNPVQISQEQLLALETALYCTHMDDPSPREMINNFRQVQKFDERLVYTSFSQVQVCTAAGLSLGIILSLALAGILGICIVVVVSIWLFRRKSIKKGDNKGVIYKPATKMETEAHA

Row | Structure (SMILES) | Ki [1] | Ki [2] | Ki [3] | Ki [4] | Ki [5] | Ki [6]
1 | CC(=NNc1ccccc1)c1cc2ccccc2c(=O)o1 [X1, 3–(1-(2-phenylhydrazono)ethyl)-1H-isochromen-1-one] | > 100 µM | > 100 µM | 4.3 µM | 1.9 µM | – | –
2 | CC(=NNc1ccc(Cl)cc1)c1cc2ccccc2c(=O)o1 [X2, 3–(1-(2–(4-chlorophenyl) hydrazono)ethyl)-1H-isochromen-1-one] | > 100 µM | > 100 µM | 3.5 µM | 4.6 µM | – | –
3 | CC(=NNc1ccc(C#N)cc1)c1cc2ccccc2c(=O)o1 [X3, 4–(2-(1–(1-oxo-1H-isochromen-3-yl)ethylidene)hydrazinyl) benzonitrile] | > 100 µM | > 100 µM | – | 1.2 µM | – | –
4 | CC(=NNc1ccccc1)c1oc(=O)c2ccccc2c1C [X4, 4-methyl-3–(1-(2-phenylhydrazono)ethyl)-1H-isochromen-1-one] | > 100 µM | > 100 µM | 3.9 µM | 2.3 µM | – | –
5 | CC(=NNc1ccc(Cl)cc1)c1oc(=O)c2ccccc2c1C [X5, 3–(1-(2–(4-chlorophenyl) hydrazono)ethyl)-4-methyl-1H-isochromen-1-one] | > 100 µM | > 100 µM | 2.7 µM | 5.8 µM | – | –
6 | O=Cc1cn(-c2ccccc2)nc1-c1cc2ccccc2c(=O)o1 [X6, 3–(1-oxo-1H-isochromen-3-yl)-1-phenyl-1H-pyrazole-4-carbaldehyde] | > 100 µM | > 100 µM | 7.1 µM | 6.5 µM | – | –
7 | O=Cc1cn(-c2ccc(Cl)cc2)nc1-c1cc2ccccc2c(=O)o1 [X7, 1–(4-chlorophenyl)-3–(1-oxo-1H-isochromen-3-yl)-1H-pyrazole-4-carbaldehyde] | > 100 µM | > 100 µM | 6.2 µM | 11.6 µM | – | –
8 | N#Cc1ccc(-n2cc(C=O)c(-c3cc4ccccc4c(=O)o3)n2)cc1 [X8, 4–(4-formyl-3–(1-oxo-1H-isochromen-3-yl)-1H-pyrazol-1-yl) benzonitrile] | > 100 µM | > 100 µM | 8 µM | 8.3 µM | – | –
9 | Cc1c(-c2nn(-c3ccccc3)cc2C=O)oc(=O)c2ccccc12 [X9, 3–(4-methyl-1-oxo-1H-isochromen-3-yl)-1-phenyl-1H-pyrazole-4-carbaldehyde] | > 100 µM | > 100 µM | 8.9 µM | 8.1 µM | – | –
10 | Cc1c(-c2nn(-c3ccc(Cl)cc3)cc2C=O)oc(=O)c2ccccc12 [X10, 1–(4-chlorophenyl)-3–(4-methyl-1-oxo-1H-isochromen-3-yl)-1H-pyrazole-4-carbaldehyde] | > 100 µM | > 100 µM | 8.1 µM | 13.4 µM | – | –
11 | O=C1NC(=O)C(=Cc2cn(-c3ccccc3)nc2-c2cc3ccccc3c(=O)o2)C(=O)N1 [X11, 5-((3–(1-oxo-1H-isochromen-3-yl)-1-phenyl-1H-pyrazol-4-yl)methylene) pyrimidine-2,4,6(1H,3H,5H)-trione] | > 100 µM | > 100 µM | 46.2 µM | 41.7 µM | – | –
12 | O=C1NC(=O)C(=Cc2cn(-c3ccc(Cl)cc3)nc2-c2cc3ccccc3c(=O)o2)C(=O)N1 [X12, 5-((1–(4-chlorophenyl)-3–(1-oxo-1H-isochromen-3-yl)-1H-pyrazol-4-yl)methylene) pyrimidine-2,4,6(1H,3H,5H)-trione] | > 100 µM | > 100 µM | – | – | > 100 µM | > 100 µM
13 | N#Cc1ccc(-n2cc(C=C3C(=O)NC(=O)NC3=O)c(-c3cc4ccccc4c(=O)o3)n2)cc1 [X13, 4–(3-(1-oxo-1H-isochromen-3-yl)-4-((2,4,6-trioxotetrahydropyrimidin-5(2H)-ylidene)methyl)-1H-pyrazol-1-yl) benzonitrile] | > 100 µM | > 100 µM | 62.4 µM | 36.2 µM | – | –
14 | Cc1c(-c2nn(-c3ccccc3)cc2C=C2C(=O)NC(=O)NC2=O)oc(=O)c2ccccc12 [X14, 5-((3–(4-methyl-1-oxo-1H-isochromen-3-yl)-1-phenyl-1H-pyrazol-4-yl)methylene) pyrimidine-2,4,6(1H,3H,5H)-trione] | > 100 µM | > 100 µM | 54.6 µM | 66.5 µM | – | –
15 | Cc1c(-c2nn(-c3ccc(Cl)cc3)cc2C=C2C(=O)NC(=O)NC2=O)oc(=O)c2ccccc12 [X15, 5-((1–(4-chlorophenyl)-3–(4-methyl-1-oxo-1H-isochromen-3-yl)-1H-pyrazol-4-yl)methylene) pyrimidine-2,4,6(1H,3H,5H)-trione] | > 100 µM | > 100 µM | – | – | > 100 µM | > 100 µM
16 | O=C1NC(=S)NC(=O)C1=Cc1cn(-c2ccccc2)nc1-c1cc2ccccc2c(=O)o1 [X16, 5-((3–(1-oxo-1H-isochromen-3-yl)-1-phenyl-1H-pyrazol-4-yl)methylene)-2-thioxodihydropyrimidine-4,6(1H,5H)-dione] | > 100 µM | > 100 µM | 49.7 µM | 47.1 µM | – | –
17 | O=C1NC(=S)NC(=O)C1=Cc1cn(-c2ccc(Cl)cc2)nc1-c1cc2ccccc2c(=O)o1 [X17, 5-((1–(4-chlorophenyl)-3–(1-oxo-1H-isochromen-3-yl)-1H-pyrazol-4-yl)methylene)-2-thioxodihydropyrimidine-4,6(1H,5H)-dione] | > 100 µM | > 100 µM | – | – | > 100 µM | > 100 µM
18 | N#Cc1ccc(-n2cc(C=C3C(=O)NC(=S)NC3=O)c(-c3cc4ccccc4c(=O)o3)n2)cc1 [X18, 4–(4-((4,6-dioxo-2-thioxotetrahydropyrimidin-5(2H)-ylidene)methyl)-3–(1-oxo-1H-isochromen-3-yl)-1H-pyrazol-1-yl) benzonitrile] | > 100 µM | > 100 µM | 78.9 µM | 53.4 µM | – | –
19 | Cc1c(-c2nn(-c3ccccc3)cc2C=C2C(=O)NC(=S)NC2=O)oc(=O)c2ccccc12 [X19, 5-((3–(4-methyl-1-oxo-1H-isochromen-3-yl)-1-phenyl-1H-pyrazol-4-yl)methylene)-2-thioxodihydropyrimidine-4,6(1H,5H)-dione] | > 100 µM | > 100 µM | 72.3 µM | 62.8 µM | – | –
20 | Cc1c(-c2nn(-c3ccc(Cl)cc3)cc2C=C2C(=O)NC(=S)NC2=O)oc(=O)c2ccccc12 [X20, 5-((1–(4-chlorophenyl)-3–(4-methyl-1-oxo-1H-isochromen-3-yl)-1H-pyrazol-4-yl)methylene)-2-thioxodihydropyrimidine-4,6(1H,5H)-dione] | > 100 µM | > 100 µM | – | – | > 100 µM | > 100 µM
